This note sets out measurements from patent US9271963B2, “Selective inhibitors of human corticosteroid synthases” (UNIVERSITAT DES SAARLANDES, priority 2005, dated 2016).

The target in assay [1] is T1, CYP11B1 (Homo sapiens (Human), UniProt P15538). To be noted: NCI-H295R.
Assay [2] has as its target T1, CYP11B1. In words: cell-based. To be noted: NCI-H295R, read-out: NCI-H295R CYP11B1 RSS % inhibition.
For assay [3], the target named is T2, CYP11B2 (Homo sapiens (Human), UniProt P19099). In words: cell-based. To be noted: NCI-H295R.
T2 sequence (P19099 25-503): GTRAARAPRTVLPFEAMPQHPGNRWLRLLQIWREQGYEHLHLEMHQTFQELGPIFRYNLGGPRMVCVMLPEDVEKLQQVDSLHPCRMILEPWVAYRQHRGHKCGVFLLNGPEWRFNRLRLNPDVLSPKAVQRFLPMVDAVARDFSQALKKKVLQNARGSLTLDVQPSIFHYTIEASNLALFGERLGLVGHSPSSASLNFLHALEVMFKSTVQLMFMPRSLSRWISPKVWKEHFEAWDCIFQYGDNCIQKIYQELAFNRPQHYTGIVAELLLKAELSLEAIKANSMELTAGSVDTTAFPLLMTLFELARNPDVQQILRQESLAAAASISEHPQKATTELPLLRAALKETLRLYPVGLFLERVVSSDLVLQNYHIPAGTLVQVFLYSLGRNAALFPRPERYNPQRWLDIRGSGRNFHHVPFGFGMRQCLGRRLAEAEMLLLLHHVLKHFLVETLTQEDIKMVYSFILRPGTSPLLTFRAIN
In a further assay the target is human CYP17 (Homo sapiens (Human), UniProt P05093). In words: CYP17 inhibition, membrane fraction of E. coli expressing human CYP17. Type of assay: biochemical. To be noted: Table 1, progesterone 2.5 μM; for inhibition at 2.5 µM: inhibitor 2.5 μM, read-out: % Inhib. Human CYP17; for IC50: read-out: IC50 Human CYP17 (values in brackets).
Sequence of human CYP17 (P05093 whole entry): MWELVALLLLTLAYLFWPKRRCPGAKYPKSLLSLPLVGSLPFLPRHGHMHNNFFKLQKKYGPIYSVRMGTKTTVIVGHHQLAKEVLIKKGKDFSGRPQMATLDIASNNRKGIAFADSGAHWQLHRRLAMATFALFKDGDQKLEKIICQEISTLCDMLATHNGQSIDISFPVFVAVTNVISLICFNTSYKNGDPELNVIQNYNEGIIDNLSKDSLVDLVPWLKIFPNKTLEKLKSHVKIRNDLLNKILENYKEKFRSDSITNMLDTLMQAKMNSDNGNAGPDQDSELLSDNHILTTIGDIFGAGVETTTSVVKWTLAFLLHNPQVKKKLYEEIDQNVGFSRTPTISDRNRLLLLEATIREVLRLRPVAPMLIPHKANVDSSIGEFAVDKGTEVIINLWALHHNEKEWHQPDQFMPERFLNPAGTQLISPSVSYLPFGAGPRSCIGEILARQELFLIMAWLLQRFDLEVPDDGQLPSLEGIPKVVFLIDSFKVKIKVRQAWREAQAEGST
For assay [4], the system named is steroid production in H295R cells. In words: cells. The assay is classed as cell-based, human. To be noted: for aldosterone secretion: within 6 hours; for inhibition at 2.5 µM / IC50: Homo sapiens, NCI-H295R; for inhibition at 2.5 µM: inhibitor 2.5 μM.
The next assay concerns the target human placental CYP19 (Homo sapiens (Human), UniProt P11511). In words: CYP19 (aromatase) inhibition, human placental microsomes. Type of assay: biochemical. As to conditions: Table 1, androstenedione 2.5 μM; for % Inhib. Human CYP19 (values in brackets): inhibitor concentration not given.
Assay [5] concerns the target T1, CYP11B1. In words: Inhibition test in V79 MZh11B1 cells (hamster fibroblasts expressing human CYP11B1). Type of assay: cell-based.
The target of assay [6] is T2, CYP11B2. In words: Inhibition test in V79 MZh11B2 cells (hamster fibroblasts expressing human CYP11B2). The assay is classed as cell-based. To be noted: Table 1; deoxycorticosterone substrate 100 nM; read-out: IC50 value V79 11B2 hCYP11B2.
The target of assay [7] is T2, CYP11B2. In words: Screening test in transgenic fission yeast (S. pombe) expressing human CYP11B2. The assay is classed as cell-based.
Setting [8] is: read-out: NCI-H295R CYP11B2 B % inhibition.
Setting [9] is: read-out: NCI-H295R CYP11B2 DOC % inhibition.
[10] abbreviates: H295R, 6 h incubation, read-out: % inhibition of DHEA production.
Setting [11] is: H295R, 6 h incubation, read-out: % inhibition of aldosterone production.
Where [12] appears, read: H295R, 6 h incubation, read-out: % inhibition of androstendione production.
Setting [13] is: H295R, 6 h incubation, read-out: % inhibition of cortisol production.
The mark [14] stands for this setting: Table 1, deoxycorticosterone substrate 100 nM, read-out: IC50 value V79 11B1 hCYP11B1.
Setting [15] is: Table 1, S. pombe cells expressing human CYP11B2, deoxycorticosterone 100 nM, inhibitor 500 nM, read-out: % Inhib. Human hCYP11B2.
The mark [16] stands for this setting: read-out: IC50 in V79MZh 11B1 cells (CYP11B1 inhibition).

Where two headings read alike, the source gives them in different places. Bounds are passed on as bounds.

T1 sequence (P15538 25-503): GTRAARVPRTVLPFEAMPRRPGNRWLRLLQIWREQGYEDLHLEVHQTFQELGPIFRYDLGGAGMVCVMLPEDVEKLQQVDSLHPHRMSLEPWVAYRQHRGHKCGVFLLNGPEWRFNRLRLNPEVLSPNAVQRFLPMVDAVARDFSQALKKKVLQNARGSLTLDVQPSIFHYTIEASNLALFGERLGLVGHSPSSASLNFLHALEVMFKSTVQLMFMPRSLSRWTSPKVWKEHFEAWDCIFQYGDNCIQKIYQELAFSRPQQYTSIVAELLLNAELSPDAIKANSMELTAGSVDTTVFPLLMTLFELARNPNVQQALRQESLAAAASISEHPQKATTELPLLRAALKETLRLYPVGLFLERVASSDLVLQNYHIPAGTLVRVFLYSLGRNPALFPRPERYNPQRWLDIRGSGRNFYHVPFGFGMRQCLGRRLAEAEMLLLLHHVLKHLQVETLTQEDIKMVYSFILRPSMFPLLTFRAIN
Sequence of human placental CYP19 (P11511 whole entry): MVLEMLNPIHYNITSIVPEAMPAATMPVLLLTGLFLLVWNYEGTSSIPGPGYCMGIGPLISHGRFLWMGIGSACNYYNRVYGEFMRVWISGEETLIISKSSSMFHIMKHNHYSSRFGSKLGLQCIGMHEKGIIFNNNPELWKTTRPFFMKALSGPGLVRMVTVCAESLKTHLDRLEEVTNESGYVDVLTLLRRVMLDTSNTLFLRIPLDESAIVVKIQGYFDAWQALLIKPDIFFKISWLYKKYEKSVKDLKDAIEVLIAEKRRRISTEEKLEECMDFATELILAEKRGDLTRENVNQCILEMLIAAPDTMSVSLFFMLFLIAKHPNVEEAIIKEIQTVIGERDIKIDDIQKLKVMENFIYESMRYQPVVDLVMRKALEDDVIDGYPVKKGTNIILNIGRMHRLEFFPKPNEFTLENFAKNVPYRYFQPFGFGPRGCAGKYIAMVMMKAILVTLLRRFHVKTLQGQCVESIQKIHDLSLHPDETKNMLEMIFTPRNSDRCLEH

Consider `c1cncc(-c2ccc3ccccc3c2)c1` [Compound 1, 3-(2-Naphthyl)pyridine], for which, on CYP11B1 [1], the “influence on CYP11B1 in comparison with fadrozole” value was “clearly lower extent”. In addition, the inhibition at 2.5 µM on CYP11B1 [2] is 43.4 ± 4.7%; at CYP11B2 [3] (setting [8]) it was 45.6 ± 2.2%; on CYP11B2 [3] (setting [9]), 82.9 ± 0.9%; on human CYP17, 40%.

As a reminder, the IC50 is the concentration needed to halve the response being measured. For `COc1ccc2cc(-c3cccnc3)ccc2c1` [Compound 2, 3-(6-Methoxy-2-naphthyl)pyridine], in assay [4] (H295R model), the “cortisol production compared with aldosterone production” value is on record as “cortisol production is inhibited more strongly than the aldosterone production”. The “androsterone production (so in the source)” value in [4] (H295R, 6 h) is recorded as “inhibited only to a low extent”. In [4] (H295R), the aldosterone secretion entry is on record as “significant concentration-dependent decrease”. Also, the inhibition at 2.5 µM in assay [4] (setting [10]) amounted to 84.5 ± 2%; in [4] (setting [11]), 56.4 ± 3.5%; in assay [4] (setting [12]), 84.6 ± 2%; in [4] (setting [13]) it was 78.6 ± 5.4%; on CYP11B1 [2], 48.5 ± 2.9%; on CYP11B2 [3] (setting [8]), 49.5 ± 2.4%. Further, the inhibition at 2.5 µM at CYP11B2 [3] (setting [9]) was 81.4 ± 6.6%. Further, the IC50 in assay [4] (H295R, 6 h incubation, read-out: IC50 of DHEA production) was below 1 nM; in assay [4] (H295R, 6 h incubation, read-out: IC50 of aldosterone production), 963 nM; in assay [4] (H295R, 6 h incubation, read-out: IC50 of androstendione production) it was below 1 nM; in assay [4] (H295R, 6 h incubation, read-out: IC50 of cortisol production), below 1 nM; against human placental CYP19 it was 586 nM; on human CYP17, 667 nM. In addition, the “influence on CYP11B1 in comparison with fadrozole” value at CYP11B1 [1] is given as “clearly lower extent”.

Consider `Oc1ccc2cc(-c3cccnc3)ccc2c1` [Compound 3, 6-Pyridin-3-yl-2-naphthol], for which, at human placental CYP19, the “% Inhib. Human CYP19 (values in brackets)” value (“% Inhib. Human CYP19” below) is “[61] %”. The figures for the IC50 on CYP11B1 [5] (setting [14]) and at CYP11B2 [6] were 715 nM and 23 nM, respectively. Further, on human CYP17, the inhibition at 2.5 µM was 65%. Further, the inhibition at 0.5 µM on CYP11B2 [7] (setting [15]) worked out at 88%.

`Brc1ccc2cc(-c3cccnc3)ccc2c1` [Compound 4, 3-(6-Bromo-2-naphthyl)pyridine]: the “% Inhib. Human CYP19” value at human placental CYP19 was “[33] %”. Further, the results for the 50% inhibitory concentration (IC50) at CYP11B1 [5] (setting [14]) and at CYP11B2 [6] were 899 nM and 15 nM, respectively. Moreover, the inhibition at 2.5 µM at human CYP17 is 46%. Besides, the inhibition at 0.5 µM on CYP11B2 [7] (setting [15]) is 85%.

`CCOc1ccc2cc(-c3cccnc3)ccc2c1` [Compound 5, 3-(6-Ethoxy-2-naphthyl)pyridine]: the IC50 against human placental CYP19 stood at 6640 nM; at CYP11B1 [5] (setting [14]) it was 883 nM; on CYP11B2 [6], 12 nM. The inhibition at 2.5 µM on human CYP17 is 53%. Besides, on CYP11B2 [7] (setting [15]), the inhibition at 0.5 µM was 86%.

Take `N#Cc1ccc2cc(-c3cccnc3)ccc2c1` [Compound 8, 6-Pyridin-3-yl-2-naphthonitrile]: on human placental CYP19, the “% Inhib. Human CYP19” value is “[44] %”. Moreover, the IC50 amounted to 691 nM on CYP11B1 [5] (setting [14]), 3 nM at CYP11B2 [6] and 686 nM on human CYP17. The inhibition at 0.5 µM at CYP11B2 [7] (setting [15]) stood at 98%.

On to `COc1ccc2cc(-c3cccnc3)ccc2c1Cl` [Compound 9, 3-(5-Chloro-6-methoxy-2-naphthyl)pyridine], for which the values for the IC50 against human placental CYP19, on CYP11B1 [5] (setting [14]) and on CYP11B2 [6] were 1800 nM, 569 nM and 13 nM, respectively. The inhibition at 2.5 µM on human CYP17 came out at 32%. The inhibition at 0.5 µM on CYP11B2 [7] (setting [15]) amounted to 86%.

In the case of `COc1ccc2cc(-c3cccnc3)ccc2c1Br` [Compound 10, 3-(5-Bromo-6-methoxy-2-naphthyl)pyridine], the IC50 at human placental CYP19 worked out at 9110 nM; at CYP11B1 [5] (setting [14]), 1530 nM; at CYP11B2 [6], 33 nM. On human CYP17, the inhibition at 2.5 µM amounted to 38%. For the same compound, at CYP11B2 [7] (setting [15]), the inhibition at 0.5 µM stood at 68%.

With `COc1ccc2c(Cl)c(-c3cccnc3)ccc2c1Cl` [Compound 12, 3-(1,5-Dichloro-6-methoxy-2-naphthyl)pyridine], the IC50 is 970 nM on human placental CYP19, 1540 nM on CYP11B1 [5] (setting [14]), 28 nM at CYP11B2 [6] and 233 nM on human CYP17. For the same compound, at CYP11B2 [7] (setting [15]), the inhibition at 0.5 µM was 82%.

With `COc1ccc2ccc(-c3cccnc3)cc2c1` [Compound 13, 3-(7-Methoxy-2-naphthyl)pyridine], the inhibition at 0.5 µM on CYP11B2 [7] (setting [15]) came to 46%.

Consider `COc1ccc2ccc(-c3cccnc3)c(Cl)c2c1` [Compound 14, 3-(1-Chloro-7-methoxy-2-naphthyl)pyridine], for which, at human placental CYP19, the “% Inhib. Human CYP19” value is “[65] %”. Further, the results for the IC50 on CYP11B1 [5] (setting [14]), on CYP11B2 [6] and on human CYP17 were 771 nM, 29 nM and 27 nM, respectively. Also, the inhibition at 0.5 µM on CYP11B2 [7] (setting [15]) worked out at 85%.

As to `COc1cc2ccccc2cc1-c1cccnc1` [Compound 15, 3-(3-Methoxy-2-naphthyl)pyridine], the inhibition at 0.5 µM at CYP11B2 [7] (setting [15]) worked out at 38%.

With `COC(=O)c1ccc2cc(-c3cccnc3)ccc2c1` [Compound 16, Methyl-6-pyridin-3-yl-2-naphthoate], the half-maximal inhibitory concentration (IC50) against human placental CYP19 was found to be 1250 nM; at CYP11B1 [5] (setting [14]) it was 10500 nM; at CYP11B2 [6] it was 73 nM. Besides, on human CYP17, the inhibition at 2.5 µM was found to be 12%. The inhibition at 0.5 µM at CYP11B2 [7] (setting [15]) was found to be 66%.

Take `c1cncc(-c2cnc3ccccc3c2)c1` [Compound 19, 3-Pyridin-3-ylquinoline]: the inhibition at 0.5 µM on CYP11B2 [7] (setting [15]) was found to be 40%.

For the compound `c1cncc(-c2ccc3ccccc3n2)c1` [Compound 20, 2-Pyridin-3-ylquinoline], on CYP11B2 [7] (setting [15]), the inhibition at 0.5 µM is 53%.

For the compound `c1ccc2cc(-n3ccnc3)ccc2c1` [Compound 23, 1-(2-Naphthyl)-1H-imidazole], the half-maximal inhibitory concentration (IC50) on CYP11B1 [5] (setting [14]) was 1050 nM; at CYP11B2 [6] it was 38 nM. For the same compound, the inhibition at 2.5 µM on human CYP17 came out at 13%. Also, on CYP11B2 [7] (setting [15]), the inhibition at 0.5 µM came to 80%.

Regarding `COc1cc2ccccc2cc1-n1ccnc1` [Compound 24, 1-(3-Methoxy-2-naphthyl)-1H-imidazole], the IC50 on human placental CYP19 came out at 129 nM; at CYP11B1 [5] (setting [14]), 5020 nM; at CYP11B2 [6] it was 40 nM. In addition, the inhibition at 2.5 µM on human CYP17 is 4%. In addition, the inhibition at 0.5 µM at CYP11B2 [7] (setting [15]) stood at 86%.

As for `c1ccc2cc(-c3c[nH]cn3)ccc2c1` [Compound 27, 4(5)-(2-Naphthyl)-1H-imidazole], the 50% inhibitory concentration (IC50) on CYP11B1 [5] (setting [14]) and at CYP11B1 [5] (setting [16]) was 206 nM in each case. For the same compound, the “% Inhib. Human hCYP11B2” value at CYP11B2 [7] (Table 1, S. pombe cells expressing human CYP11B2, deoxycorticosterone 100 nM, inhibitor 500 nM) was 41%.

Consider `c1ccc2cc(-c3cnco3)ccc2c1` [Compound 29, 5-(2-Naphthyl)-1,3-oxazole], for which the values for the IC50 at CYP11B1 [5] (setting [14]) and at CYP11B1 [5] (setting [16]) were 805 nM and 206 to 805 nM, respectively. For the same compound, on CYP11B2 [7], the “CYP11B2 inhibition in S. pombe” value is on record as “very low”. Further, the inhibition at 0.5 µM on CYP11B2 [7] (setting [15]) was determined as 16%.

In the case of `COc1ccc2cc(-c3cncnc3)ccc2c1` [Compound 30, 5-(6-Methoxy-2-naphthyl)pyrimidine], at CYP11B2 [7] (setting [15]), the inhibition at 0.5 µM was determined as 46%.

Regarding `C1=C(n2ccnc2)CCc2ccccc21` [Compound 45, 1-(3,4-Dihydronaphthalene-2-yl)-1H-imidazole], the “CYP11B2 inhibition in S. pombe” value on CYP11B2 [7] was “very low”. Also, at CYP11B2 [7] (Table 2, S. pombe cells expressing human CYP11B2, deoxycorticosterone 100 nM, inhibitor 500 nM, read-out: % Inhibition Human hCYP11B2), the inhibition at 0.5 µM came to 34%.

In the case of `COc1ccc2c(c1)CCC(n1ccnc1)=C2` [Compound 46, 1-(6-Methoxy-3,4-dihydronaphthalene-2-yl)-1H-imidazole], the IC50 at CYP11B1 [5] (setting [16]) is 206 to 805 nM; on CYP11B1 [5] (read-out: IC50 value V79 11B1 hCY11B1) it was 763 nM. On CYP11B2 [7], the “CYP11B2 inhibition in S. pombe” value is “very low”. Besides, the inhibition at 0.5 µM at CYP11B2 [7] (read-out: % Inhibition Human hCYP11B2) is 35%.

Turning to `CC(=O)N1CCN(c2ccc(OCC3COC(Cn4ccnc4)(c4ccc(Cl)cc4Cl)O3)cc2)CC1` (stereo not shown) [Ketoconazole, reference compound], the aldosterone secretion entry in assay [4] (H295R) was “significant concentration-dependent decrease”. Besides, the IC50 in assay [4] (6 h, read-out: IC50 of DHEA production) came to 51.8 nM; in [4] (6 h, read-out: IC50 of aldosterone production) it was 13100 nM; in [4] (6 h, read-out: IC50 of androstendione production) it was 59.6 nM; in [4] (6 h, read-out: IC50 of cortisol production), 155 nM. The inhibition at 2.5 µM stood at 94.4 ± 0.6% in [4] (setting [10]), 33.3 ± 3.3% in [4] (setting [11]), 89.2 ± 1.2% in [4] (setting [12]) and 88.1 ± 1% in [4] (setting [13]).
